Results taken from the supplement of paper PMC7840683.
Where a name gives a salt, the structure may show the parent alone. ± gives the standard deviation of the averaged measurements.

Tested on: HepaRG
Assay: LDH release cytotoxicity, % of total lysis control; higher = more cytotoxic
Conditions: 48 h
Summary of the method: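 Duplicate wells of single-lot HepaRG cells, grown on collagen I-coated 96-well plates, received eight-point half-log series of test chemicals with 100 µM as the top concentration. Exposure lasted 48 h in serum-free induction medium with 0.5% DMSO, while total lysis wells received 0.1% Triton X. Resorufin fluorescence (CytoTox-ONE, Tecan Safire) was used to quantify LDH leaked into 50 µL of spent medium. Values for percent cytotoxicity were normalized to on-plate vehicle and total lysis controls and averaged across the duplicates.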

| SMILES | LDH release cytotoxicity (0.03162 µM) [%] | LDH release cytotoxicity (0.1 µM) [%] | LDH release cytotoxicity (0.3162278 µM) [%] | LDH release cytotoxicity (1 µM) [%] | LDH release cytotoxicity (3.16228 µM) [%] | LDH release cytotoxicity (10 µM) [%] | LDH release cytotoxicity (31.6228 µM) [%] | LDH release cytotoxicity (100 µM) [%] | LDH release cytotoxicity (0.01581 µM) [%] | LDH release cytotoxicity (0.05 µM) [%] | LDH release cytotoxicity (0.1581139 µM) [%] | LDH release cytotoxicity (0.5 µM) [%] | LDH release cytotoxicity (1.5811388 µM) [%] | LDH release cytotoxicity (5 µM) [%] | LDH release cytotoxicity (15.8114 µM) [%] | LDH release cytotoxicity (50 µM) [%] | LDH release cytotoxicity (0.031623 µM) [%] | LDH release cytotoxicity (0.316228 µM) [%] |
| --- | --- | --- | --- | --- | --- | --- | --- | --- | --- | --- | --- | --- | --- | --- | --- | --- | --- | --- |
| CC12CC1(C)C(=O)N(c1cc(Cl)cc(Cl)c1)C2=O (configuration not stated) [Procymidone] | -1.37 ± 0.98 | -1.85 ± 0.2 | -2.08 ± 1.2 | -2.56 ± 0.83 | -2.762 ± 0.024 | -1.32 ± 0.37 | -2.43 ± 0.027 | -1.16 ± 1.2 |  |  |  |  |  |  |  |  |  |  |
| CCCN(CCC)c1c([N+](=O)[O-])cc(C(F)(F)F)c(N)c1[N+](=O)[O-] [Prodiamine] | -2.33 ± 0.34 | -1.51 ± 1.1 | -2.72 ± 0.29 | -3.4 ± 1.3 | 0.15 ± 1.8 | -1.16 ± 0.42 | -0.459 ± 0.57 | 8.35 ± 0.43 |  |  |  |  |  |  |  |  |  |  |
| CCCSP(=O)(OCC)Oc1ccc(Br)cc1Cl (configuration not stated) [Profenofos] |  |  |  |  |  |  |  |  | -6.81 ± 0.41 | -6.73 ± 0.81 | -6.46 ± 0.68 | -6.51 ± 0.86 | -6.7 ± 1.5 | -7.47 ± 0.58 | -7.49 ± 1.1 | -6.78 ± 0.14 |  |  |
| CC(=O)C1CCC2C3CCC4=CC(=O)CCC4(C)C3CCC12C (configuration not stated) [Progesterone] | 0.112 ± 0.97 | -0.0962 ± 0.055 | -0.597 ± 1.8 | -0.509 ± 0.91 | -1.13 ± 0.52 | -2 ± 0.72 | 12.6 ± 0.78 | 55.9 ± 1.6 |  |  |  |  |  |  |  |  |  |  |
| COc1nc(NC(C)C)nc(NC(C)C)n1 [Prometon] | -0.0909 ± 0.068 | -0.994 ± 0.017 | -1.1 ± 0.4 | -1.18 ± 0.78 | -1.26 ± 0.4 | -1.06 ± 0.7 | -0.722 ± 0.4 | -0.643 ± 0.89 |  |  |  |  |  |  |  |  |  |  |
| CSc1nc(NC(C)C)nc(NC(C)C)n1 [Prometryn] |  | -3.89 ± 0.19 |  | -2.93 ± 0.23 | -2.42 ± 0.25 | -2.73 ± 0.41 | -3.26 ± 0.29 | -1.44 ± 0.069 |  |  |  |  |  |  |  |  | 1.02 ± 1.4 | -3.27 ± 0.09 |
| CCCOC(=O)NCCCN(C)C [Propamocarb hydrochloride] | 0.518 ± 0.36 | -0.315 ± 0.73 | -0.112 ± 0.25 | -0.746 ± 0.025 | 0 ± 0.72 | 0.683 ± 0.9 | 0.664 ± 0.54 | 0.411 ± 0.061 |  |  |  |  |  |  |  |  |  |  |
| CCC(=O)Nc1ccc(Cl)c(Cl)c1 [Propanil] | -0.963 ± 0.057 | -0.318 ± 1.1 | -0.815 ± 0.19 | -1.73 ± 0.56 | -0.844 ± 0.53 | 0.163 ± 0.67 | 0.666 ± 0.14 | 4.33 ± 0.28 |  |  |  |  |  |  |  |  |  |  |
| C#CCOS(=O)OC1CCCCC1Oc1ccc(C(C)(C)C)cc1 (configuration not stated) [Propargite] | -0.16 ± 0.35 | -0.456 ± 1.3 | -0.537 ± 0.23 | 0.246 ± 0.3 | -0.49 ± 0.87 | -0.575 ± 0.68 | 62.8 ± 4 | 83.83 ± 0.65 |  |  |  |  |  |  |  |  |  |  |
| CC(C)Nc1nc(Cl)nc(NC(C)C)n1 [Propazine] | -0.771 ± 1.3 | -0.918 ± 1.2 | -0.266 ± 0.027 | -0.0277 ± 0.68 | -0.787 ± 0.95 | -0.398 ± 0.52 | -0.397 ± 0.52 | -0.828 ± 0.37 |  |  |  |  |  |  |  |  |  |  |
| CCNP(=S)(OC)OC(C)=CC(=O)OC(C)C (configuration not stated) [Propetamphos] | 0.305 ± 0.75 | -0.308 ± 0.074 | -1.36 ± 0.17 | -0.42 ± 0.63 | -0.261 ± 0.68 | 0.0856 ± 0.23 | -1.69 ± 0.097 | 2.91 ± 0.14 |  |  |  |  |  |  |  |  |  |  |
| CCCC1COC(Cn2cncn2)(c2ccc(Cl)cc2Cl)O1 (configuration not stated) [Propiconazole] | -1.15 ± 0.41 | -1.4 ± 0.43 | -1.43 ± 0.71 | -0.956 ± 0.14 | -0.902 ± 0.17 | -0.927 ± 1 | 12.7 ± 3.1 | 26.8 ± 4 |  |  |  |  |  |  |  |  |  |  |
| CNC(=O)Oc1ccccc1OC(C)C [Propoxur] | -0.314 ± 0.63 | -0.642 ± 0.96 | 0.0787 ± 1.4 | -0.886 ± 0.72 | 0.431 ± 0.29 | -0.355 ± 1.1 | -0.0411 ± 0.99 | 2.29 ± 1.8 |  |  |  |  |  |  |  |  |  |  |
| CCCOc1nn(C(=O)NS(=O)(=O)c2ccccc2C(=O)OC)c(=O)n1C [Propoxycarbazone-sodium] | 0.284 ± 0.84 | 0.427 ± 0.12 | -0.758 ± 0.093 | -0.962 ± 0.093 | -0.435 ± 0.032 | -0.39 ± 0.58 | -0.185 ± 0.43 | 0.864 ± 0.4 |  |  |  |  |  |  |  |  |  |  |
| CCCOC(=O)c1cc(O)c(O)c(O)c1 [Propyl gallate] |  | -3.35 ± 1.2 |  | -4.27 ± 0.64 | -3.65 ± 0.077 | -3.8 ± 0.18 | -4.52 ± 0.15 | -3.34 ± 1.5 |  |  |  |  |  |  |  |  | 0.488 ± 2.3 | -3.75 ± 0.63 |
| CCCc1ccccc1 [Propylbenzene] | 0.0897 ± 0.19 | 0.202 ± 1 | -0.202 ± 0.32 | -0.857 ± 0.72 | 0.305 ± 0.066 | -0.0719 ± 0.68 | 1.09 ± 2 | 0.766 ± 0.2 |  |  |  |  |  |  |  |  |  |  |
| CCCOC(=O)c1ccc(O)cc1 [Propylparaben] | -0.197 ± 0.47 | -0.55 ± 1.1 | -0.664 ± 0.59 | -0.711 ± 0.26 | -0.982 ± 0.64 | -0.514 ± 0.63 | -0.541 ± 0.47 | 0.018 ± 1.1 |  |  |  |  |  |  |  |  |  |  |
| C#CC(C)(C)NC(=O)c1cc(Cl)cc(Cl)c1 [Propyzamide] | -1.48 ± 1.2 | -0.106 ± 0.45 | -1.18 ± 0.17 | -0.534 ± 0.42 | -1.13 ± 0.49 | -0.249 ± 0.6 | -0.378 ± 0.49 | 1.49 ± 0.29 |  |  |  |  |  |  |  |  |  |  |
| CC1CN(N=Cc2cccnc2)C(=O)N=N1 (configuration not stated) [Pymetrozine] | 4.48 ± 0.29 | 4.64 ± 1.1 | 4.33 ± 1.2 | 3.28 ± 0.56 | 5.3 ± 1.3 | 4.29 ± 1.6 | 6.57 ± 0.73 | 9.47 ± 2.1 |  |  |  |  |  |  |  |  |  |  |
